From patent US11407737B2, “Inhibitors of RAF kinases” (Kinnate Biopharma Inc., priority 2020, dated 2022)
Like-named read-outs stand apart in the source and are kept apart here.

Biological target: human RAF1 (Homo sapiens (Human), UniProt P04049)
Test: Protein kinase assay (radiometric 33P-ATP, MEK1 (K97R) substrate), RAF-1
Format: biochemical
Procedure: Example 1: Kinase Assay Protocol
Assay platform was used to measure kinase/inhibitor interactions as described previously (Anastassiadis et al., 2011). In brief, for each reaction, kinase and substrate were mixed in a buffer containing 20 mM HEPES (pH 7.5), 10 mM MgCl2, 1 mM EGTA, 0.02% Brij35, 0.02 mg/mL BSA, 0.1 mM Na3VO4, 2 mM DTT, and 1% DMSO. All compounds were solubilized in DMSO. Compounds were then added to each reaction mixture via acoustic dispense using an ECHO 550 nanoliter dispenser. For human RAF1 testing, human MEK1 (K97R) was used as a substrate at a concentration of 3 micromolar, with a final ATP concentration of 10 micromolar. For human BRAF testing, human MEK1 (K97R) was used as a substrate at 1 micromolar concentration, with a final ATP concentration of 25 micromolar. […] After a 20-min incubation, ATP (Sigma-Aldrich, St. Louis, Mo. 63178) and [g33P] ATP (specific activity 10 microCi/microliter) purchased at PerkinElmer (Boston, Mass., 02118 Cat #BLU 003H250UC) were added at a final total concentration of […]. Reactions were carried out at room temperature for 2 hr and spotted onto P81 ion exchange cellulose chromatography paper (Reaction Biology). Filter paper was washed in 0.75% phosphoric acid to remove unincorporated ATP. The percent remaining kinase activity relative to a vehicle-containing (DMSO) kinase reaction was calculated for each kinase/inhibitor pair. IC50 values were calculated using Prism 5 (GraphPad).

[1] = human MEK1 (K97R) substrate 3 micromolar, ATP 10 micromolar, 10-dose, 3-fold serial dilution starting at 10 micromolar, read-out: RAF-1 IC50

Chain of human RAF1 (P04049 whole entry): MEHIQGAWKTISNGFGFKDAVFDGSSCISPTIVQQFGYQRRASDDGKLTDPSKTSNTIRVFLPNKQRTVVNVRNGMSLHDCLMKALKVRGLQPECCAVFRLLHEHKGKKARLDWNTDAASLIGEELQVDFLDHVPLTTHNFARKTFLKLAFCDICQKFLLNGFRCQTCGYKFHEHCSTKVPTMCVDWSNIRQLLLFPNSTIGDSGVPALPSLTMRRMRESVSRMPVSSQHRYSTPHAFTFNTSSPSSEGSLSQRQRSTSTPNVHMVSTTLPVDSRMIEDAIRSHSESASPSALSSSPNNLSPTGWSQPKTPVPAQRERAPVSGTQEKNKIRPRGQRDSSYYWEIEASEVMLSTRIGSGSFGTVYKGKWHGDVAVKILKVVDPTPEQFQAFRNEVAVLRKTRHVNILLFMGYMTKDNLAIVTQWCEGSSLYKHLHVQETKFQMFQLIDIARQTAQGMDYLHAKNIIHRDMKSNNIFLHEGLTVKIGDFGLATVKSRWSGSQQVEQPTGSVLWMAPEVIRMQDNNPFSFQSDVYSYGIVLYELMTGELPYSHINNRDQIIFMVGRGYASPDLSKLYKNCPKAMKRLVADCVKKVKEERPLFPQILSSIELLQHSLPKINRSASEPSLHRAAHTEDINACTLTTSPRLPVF

| IC50 [1] [nM] | Compound | IC50 [nM] |
| --- | --- | --- |
| 1 to 10 | Cc1ccc(NC(=O)N2CC[C@@H](CC(F)(F)F)C2)cc1-c1cc(-c2cnn(CCO)c2)nc(N2CCOCC2)c1 [Example 58, (3S)—N-(3-(2-(1-(2-hydroxyethyl)-1H-pyrazol-4-yl)-6-morpholinopyridin-4-yl)-4-methylphenyl)-3-(2,2,2-trifluoroethyl)pyrrolidine-1-carboxamide] | – |
| 1 to 10 | Cc1ccc(NC(=O)N2CC[C@@H](CC(F)(F)F)C2)cc1-c1cc(CCO)nc(N2CCOCC2)c1 [Example 32, (3S)—N-[3-[2-(2-hydroxyethyl)-6-(morpholin-4-yl)pyridin-4-yl]-4-methylphenyl]-3-(2,2,2-trifluoroethyl)pyrrolidine-1-carboxamide] | – |
| 1 to 10 | Cc1ccc(NC(=O)N2CC[C@@H](CC(F)(F)F)C2)cc1-c1cc(C(=O)NCCO)nc(N2CCOCC2)c1 [Example 4, N-(2-hydroxyethyl)-4-[2-methyl-5-[(3S)-3-(2,2,2-trifluoroethyl)pyrrolidine-1-carbonylamino]phenyl]-6-(morpholin-4-yl)pyridine-2-carboxamide] | – |
| 1 to 10 | Cc1cc(-c2cc(-c3cc(NC(=O)N4CC[C@@H](CC(F)(F)F)C4)ccc3C)cc(N3CCOCC3)n2)n(C)n1 [Example 50, (3S)—N-[3-[2-(2,5-dimethylpyrazol-3-yl)-6-(morpholin-4-yl)pyridin-4-yl]-4-methylphenyl]-3-(2,2,2-trifluoroethyl)pyrrolidine-1-carboxamide] | – |
| < 1 | Cc1cc(-c2cc(NC(=O)N3CC[C@@H](CC(F)(F)F)C3)c(F)cc2C)cc(N2CCOCC2)n1 [Example 70, (3S)—N-{2-fluoro-4-methyl-5-[2-methyl-6-(morpholin-4-yl)pyridin-4-yl]phenyl}-3-(2,2,2-trifluoroethyl)pyrrolidine-1-carboxamide] | – |
| 1 to 10 | Cc1ccc(NC(=O)N2CC[C@@H](CC(F)(F)F)C2)cc1-c1cc(C#C[C@@H](C)O)nc(N2CCOCC2)c1 [Example 11, (3S)—N-(3-[2-[(3R)-3-hydroxybut-1-yn-1-yl]-6-(morpholin-4-yl)pyridin-4-yl]-4-methylphenyl)-3-(2,2,2-trifluoroethyl)pyrrolidine-1-carboxamide] | – |
| 1 to 10 | Cc1ccc(NC(=O)N2CC[C@@H](CC(F)(F)F)C2)cc1-c1cc(C#CC(C)N)nc(N2CCOCC2)c1 (stereo partly drawn) [Example 55, (3S)—N-{3-[2-(3-aminobut-1-yn-1-yl)-6-(morpholin-4-yl)pyridin-4-yl]-4-methylphenyl}-3-(2,2,2-trifluoroethyl)pyrrolidine-1-carboxamide] | – |
| 1 to 10 | Cc1ccc(NC(=O)N2CC[C@@H](CC(F)(F)F)C2)cc1-c1cc(-c2c(C)n[nH]c2C)nc(N2CCOCC2)c1 [Example 51, (3S)—N-[3-[2-(3,5-dimethyl-1H-pyrazol-4-yl)-6-(morpholin-4-yl)pyridin-4-yl]-4-methylphenyl]-3-(2,2,2-trifluoroethyl)pyrrolidine-1-carboxamide] | – |
| 1 to 10 | Cc1ccc(NC(=O)N2CC[C@@H](CC(F)(F)F)C2)cc1-c1cc(C(N)=O)nc(N2CCOCC2)c1 [Example 2, 4-[2-methyl-5-[(3S)-3-(2,2,2-trifluoroethyl)pyrrolidine-1-carbonylamino]phenyl]-6-(morpholin-4-yl)pyridine-2-carboxamide] | – |
| < 1 | Cc1cc(F)c(NC(=O)N2CC[C@@H](C(F)(F)F)C2)cc1-c1cc(-c2cnn(C)c2)nc(N2CCOCC2)c1 [Example 75, (3R)—N-{2-fluoro-4-methyl-5-[2-(1-methylpyrazol-4-yl)-6-(morpholin-4-yl)pyridin-4-yl]phenyl}-3-(trifluoromethyl)pyrrolidine-1-carboxamide] | – |
| 1 to 10 | Cc1ccc(NC(=O)N2CCO[C@H](C(F)(F)F)C2)cc1-c1cc(-c2cnn(C)c2)nc(N2CCOCC2)c1 [Example 62, (2S)—N-{4-methyl-3-[2-(1-methylpyrazol-4-yl)-6-(morpholin-4-yl)pyridin-4-yl]phenyl}-2-(trifluoromethyl)morpholine-4-carboxamide] | – |
| 1 to 10 | Cc1cc(F)c(NC(=O)N2CCC(C(C)(C)F)C2)cc1-c1cc(-c2cnn(C)c2)nc(N2CCOCC2)c1 (stereo not shown) [Example 85, N-{2-fluoro-4-methyl-5-[2-(1-methylpyrazol-4-yl)-6-(morpholin-4-yl)pyridin-4-yl]phenyl}-3-(2-fluoropropan-2-yl)pyrrolidine-1-carboxamide] | – |
| 1 to 10 | Cc1cc(F)c(NC(=O)N2CC[C@H](C(C)(C)C)C2)cc1-c1cc(-c2cnn(C)c2)nc(N2CCOCC2)c1 [Example 83, (3R)-3-tert-butyl-N-{2-fluoro-4-methyl-5-[2-(1-methylpyrazol-4-yl)-6-(morpholin-4-yl)pyridin-4-yl]phenyl}pyrrolidine-1-carboxamide] | – |
| – | Cc1ccc(NC(=O)N2CC[C@@H](CC(F)(F)F)C2)cc1-c1cc(C(=O)NC[C@@H](C)O)nc(N2CCOCC2)c1 [Example 5, N-[(2R)-2-hydroxypropyl]-4-[2-methyl-5-[(3S)-3-(2,2,2-trifluoroethyl)pyrrolidine-1-carbonylamino]phenyl]-6-(morpholin-4-yl)pyridine-2-carboxamide] | 1 to 10 |
| 1 to 10 | Cc1ccc(NC(=O)N2CC[C@@H](CC(F)(F)F)C2)cc1-c1cc(-c2cn(C)nn2)nc(N2CCOCC2)c1 [Example 14, (S)—N-(4-methyl-3-(2-(1-methyl-1H-1,2,3-triazol-4-yl)-6-morpholinopyridin-4-yl)phenyl)-3-(2,2,2-trifluoroethyl)pyrrolidine-1-carboxamide] | – |
| < 1 | Cc1cc(F)c(NC(=O)N2CC=C(CC(F)(F)F)C2)cc1-c1cc(-c2cnn(C)c2)nc(N2CCOCC2)c1 [Example 77, N-{2-fluoro-4-methyl-5-[2-(1-methylpyrazol-4-yl)-6-(morpholin-4-yl)pyridin-4-yl]phenyl}-3-(2,2,2-trifluoroethyl)-2,5-dihydropyrrole-1-carboxamide] | – |
| < 1 | Cc1cc(F)c(NC(=O)N2CC[C@H](C(F)(F)F)C2)cc1-c1cc(-c2cnn(C)c2)nc(N2CCOCC2)c1 [Example 76, (3S)—N-{2-fluoro-4-methyl-5-[2-(1-methylpyrazol-4-yl)-6-(morpholin-4-yl)pyridin-4-yl]phenyl}-3-(trifluoromethyl)pyrrolidine-1-carboxamide] | – |
| < 1 | Cc1ccc(NC(=O)N2CC[C@@H](CC(F)(F)F)C2)cc1-c1cc(-c2cnc(O)o2)nc(N2CCOCC2)c1 [Example 26, (3S)—N-[3-[2-(2-hydroxy-1,3-oxazol-5-yl)-6-(morpholin-4-yl)pyridin-4-yl]-4-methylphenyl]-3-(2,2,2-trifluoroethyl)pyrrolidine-1-carboxamide] | – |
| < 1 | Cc1ccc(NC(=O)N2CC[C@@H](CC(F)(F)F)C2)cc1-c1cc(/C=C/CO)nc(N2CCOCC2)c1 [Example 23, (3S)—N-(3-[2-[(1E)-3-hydroxyprop-1-en-1-yl]-6-(morpholin-4-yl)pyridin-4-yl]-4-methylphenyl)-3-(2,2,2-trifluoroethyl)pyrrolidine-1-carboxamide] | – |
| 1 to 10 | Cc1ccc(NC(=O)N2CC[C@@H](CC(F)(F)F)C2)cc1-c1cc(-c2ccnc(N)n2)nc(N2CCOCC2)c1 [Example 45, (3S)—N-[3-[2-(2-aminopyrimidin-4-yl)-6-(morpholin-4-yl)pyridin-4-yl]-4-methylphenyl]-3-(2,2,2-trifluoroethyl)pyrrolidine-1-carboxamide] | – |
| < 1 | Cc1ccc(NC(=O)N2CC[C@@H](CC(F)(F)F)C2)cc1-c1cc(C2CCNC2)nc(N2CCOCC2)c1 (stereo partly drawn) [Example 34, (3S)—N-[4-methyl-3-[2-(morpholin-4-yl)-6-(pyrrolidin-3-yl)pyridin-4-yl]phenyl]-3-(2,2,2-trifluoroethyl)pyrrolidine-1-carboxamide] | – |
| 1 to 10 | Cc1ccc(NC(=O)N2CC[C@@H](CC(F)(F)F)C2)cc1-c1cc(N2CCOCC2)nc(C(F)(F)F)c1 [Example 56, (3S)—N-[4-methyl-3-[2-(morpholin-4-yl)-6-(trifluoromethyl)pyridin-4-yl]phenyl]-3-(2,2,2-trifluoroethyl)pyrrolidine-1-carboxamide] | – |
| 1 to 10 | Cc1ccc(NC(=O)N2CC[C@@H](CC(F)(F)F)C2)cc1-c1cc(-c2cnc(N)[nH]2)nc(N2CCOCC2)c1 [Example 43, (3S)—N-[3-[2-(2-amino-3H-imidazol-4-yl)-6-(morpholin-4-yl)pyridin-4-yl]-4-methylphenyl]-3-(2,2,2-trifluoroethyl)pyrrolidine-1-carboxamide] | – |
| 10 to 100 | Cc1ccc(NC(=O)N2CC[C@@H](CC(F)(F)F)C2)cc1-c1cc(C2=CCN(C)CC2)nc(N2CCOCC2)c1 [Example 31, (3S)—N-[4-methyl-3-[1′-methyl-6-(morpholin-4-yl)-3′,6′-dihydro-2′H-[2,4′-bipyridin]-4-yl]phenyl]-3-(2,2,2-trifluoroethyl)pyrrolidine-1-carboxamide] | – |
| 1 to 10 | Cc1cc(-c2cc(NC(=O)N3CC[C@@H](CC(F)(F)F)C3)ccc2C)cc(N2CCOCC2)n1 [Example 1, (3S)—N-[4-methyl-3-[2-methyl-6-(morpholin-4-yl)pyridin-4-yl]phenyl]-3-(2,2,2-trifluoroethyl)pyrrolidine-1-carboxamide] | – |
